Common to all, as to format: ADME, organism-based
Series [1] in a line: Tmax in Swiss albino mouse at 10 mg/kg, po. As to conditions: in vivo.
Series [2] can be described thus: Cmax in Swiss albino mouse at 10 mg/kg, po. On the set-up: dose 10 mg/kg, route oral. As to conditions: in vivo.
Series [3] deals with Mus musculus. Kind of series: AUClast in Swiss albino mouse at 2 mg/kg, iv. On the set-up: dose 2 mg/kg, time 0 - last, route intravenous. As to conditions: in vivo.
Series [4] is described as follows: Cmax in Swiss albino mouse at 2 mg/kg, iv. On the set-up: dose 2 mg/kg, route intravenous. As to conditions: in vivo.
Series [5] is described as follows: Volume of distribution at steady state in Swiss albino mouse at 2 mg/kg, iv. As to conditions: in vivo, read-out: Vdss.
Series [6] is described as follows: Oral bioavailability in Swiss albino mouse at 10 mg/kg. As to conditions: in vivo.
The subject of series [7] is Mus musculus. Kind of series: AUClast in Swiss albino mouse at 10 mg/kg, po. As to conditions: in vivo. On the set-up: dose 10 mg/kg, route oral, time 0 - last.

Consider one molecule from ChEMBL document CHEMBL3600288, “Development of Selective Covalent Janus Kinase 3 Inhibitors” (J Med Chem, 2015).

The term Tmax denotes the time at which the peak concentration occurs. What is called Cmax is the peak of the concentration-time curve. Broadly, the bioavailability is dose-corrected exposure relative to a reference, in per cent. A lower bioavailability goes with little systemic uptake. As for `C=CC(=O)Nc1cccc(CNc2nc(Nc3ccc(N4CCN(C)CC4)cc3OC)ncc2Cl)c1`, the time to peak (Tmax) in series [1] stood at 30 min. Besides, the Cmax in series [2] stood at 0.204 µg/mL; in series [4], 0.159 µg/mL. Moreover, the AUClast was found to be 241.3 h/ng/mL in the series on Mus musculus [3] and 795.29 h/ng/mL in the series on Mus musculus [7]. Moreover, in series [5], the Vd was determined as 18.4 L/kg. The molecule further showed a bioavailability in series [6] of 66%.
